Measurements published in article PMC9598407, “Identification of Staphylococcus aureus Penicillin Binding Protein 4 (PBP4) Inhibitors” (Antibiotics, 2022).
Values after ≈ are worked out from the molar mass of the structure shown.

What was measured:
S. aureus USA300 = assay: Minimum inhibitory concentration (MIC) testing, strain USA300; format: cell-based, Staphylococcus aureus; conditions: Staphylococcus aureus, USA300, read-out: Minimum inhibitory concentration
Experimental: (§1) The approach used was to initially search for compounds that reverse the antibiotic resistance profile of wild type cells to that of a pbp4 mutant. To define screening conditions three strains were employed, a wild type USA300 MRSA strain, an isogenic pbp4 deletion strain, and a complemented strain harboring a plasmid wildtype pbp4 copy. The antibiotic susceptibility profile of each strain was measured to determine the magnitude with which PBP4 affects resistance to various antibiotics (Table 1). […]. We anticipated that the greater dynamic range of the latter could provide a means to reliably screen for agents that inhibit PBP4 function. […].
(§2) S. aureus strain USA300 is a predominant cause of U.S. community-associated MRSA infections, whereas strain COL is a commonly studied hospital-associated MRSA strain. The S. aureus USA300 pbp4-null strain (USA300Δpbp4) and PBP4 complementation strain (USA300∆pbp4 pPBP4) have been previously described. Strain COLn is a laboratory derived tetracycline susceptible derivative of COL, whereas COLnex is a methicillin susceptible COLn derivative that has been cured of SCCmec thereby removing the mecA, which encodes PBP2a, and has been previously described. Strain CRB is a well-studied MRSA COLnex derivative that contains two amino acid substitutions (E183A and F241R) near the PBP4 active site and a 36-bp duplication 290-bp upstream of the pbp4 open reading frame leading to 20–40-fold overexpression of the gene. All strains were grown in Mueller Hinton (MH) broth at 37 °C, as indicated. Penicillin, streptomycin, ciprofloxacin, mupirocin, meropenem, and mitomycin C were purchased from Fisher Scientific (Waltham, MA, USA), whereas ceftobiprole was obtained from MedChemExpress LLC (Monmouth Junction, NJ, USA). The 30,000-member […]-EXP small molecule chemical library (Blocks 3–5) used in these studies was purchased from ChemBridge Corporation (San Diego, CA, USA).

S. aureus USA300∆pbp4 = assay: MIC testing, strain USA300∆pbp4; format: cell-based, Staphylococcus aureus; conditions: Staphylococcus aureus, USA300, read-out: Minimum inhibitory concentration
Experimental: as §1, §2

[1] = tested on: S. aureus USA300∆pbp4 pPBP4; assay: microbe, parasite or virus in culture; format: cell-based; conditions: Staphylococcus aureus, USA300, read-out: Minimum inhibitory concentration
S. aureus COLnex = assay: MIC testing, strain COLnex; format: cell-based; conditions: Staphylococcus aureus, read-out: Minimum inhibitory concentration
Experimental: (§3) To further evaluate their potential PBP4 inhibitor activity, prioritized compounds were tested for their ability to reverse PBP4 mediated antibiotic resistance in another S. aureus background using three isogenic strains that became available during our study (generous gift from Dr. S. Chatterjee; University of Maryland). These strains included: (1) COLnex, which is a methicillin susceptible strain, (2) CRB, a methicillin/ceftobiprole-resistant strain of COLnex that overproduces PBP4, and (3) CRB∆pbp4, a methicillin susceptible strain of CRB lacking the pbp4 gene.
as §2

S. aureus CRB = assay: MIC testing, strain CRB (PBP4 overproducer); format: cell-based, Staphylococcus aureus; conditions: for MIC: Staphylococcus aureus, read-out: Minimum inhibitory concentration, strain CRB
Experimental: as §3, §2

S. aureus CRB∆pbp4 = assay: MIC testing, strain CRB∆pbp4; format: cell-based; conditions: Staphylococcus aureus, read-out: Minimum inhibitory concentration
Experimental: as §3, §2

S. aureus strain CRB = assay: Fractional inhibitory concentration checkerboard, ceftobiprole + putative PBP4 inhibitor, strain CRB; format: cell-based, Staphylococcus aureus; conditions: Staphylococcus aureus, read-out: CRB Alone BPR (ceftobiprole MIC alone)
Experimental: (§4) Fractional inhibitory testing was performed in checkerboard format to determine whether putative PBP4 inhibitors potentiated the antimicrobial effects of β-lactams toward S. aureus strains USA300 and CRB, as previously described. To do so, in triplicate 10^5 CFU of each strain (10 µL) was added to individual wells of a microtiter plate containing 90 µL MH media. […] Plates were incubated at 37 °C for 16–20 h and the lowest concentration of each test agent that inhibited bacterial growth alone or in combination was determined by the naked eye. The fractional inhibitory concentration (FIC) index was calculated using the formula: FIC of A (MIC of drug A in combination/MIC of drug A alone) + FIC B ([…]/MIC of drug B alone). A synergistic interaction was defined as a FICI value of less than 0.5, an additive interaction was defined as a FICI value between 0.5 and 1.0, an indifferent interaction was defined as a FICI value between 1.0 and 4.0, and an antagonistic interaction was defined as a FICI value of more than 4.0 [46].

[2] = tested on: S. aureus strain CRB∆pbp4; assay: Fractional inhibitory concentration checkerboard, ceftobiprole + putative PBP4 inhibitor, strain CRB∆pbp4; format: cell-based, Staphylococcus aureus; conditions: Staphylococcus aureus, read-out: CRB∆pbp4 Alone BPR (ceftobiprole MIC alone)
S. aureus strain USA300 = assay: microbe, parasite or virus in culture; format: cell-based; conditions: Staphylococcus aureus, USA300, read-out: Ceftobiprole resistance (MIC) without compound
Experimental: as §4

## Nc1nc(/C(=N/O)C(=O)N[C@@H]2C(=O)N3C(C(=O)O)=C(/C=C4\CCN([C@@H]5CCNC5)C4=O)CS[C@H]23)ns1 [BPR, ceftobiprole]
S. aureus USA300
  MIC: 0.5 µg/mL (≈ 0.935 µM)
S. aureus USA300∆pbp4
  MIC: 0.25 µg/mL (≈ 0.468 µM)
[1]
  MIC: 0.5 µg/mL (≈ 0.935 µM)
S. aureus COLnex
  MIC: 0.25 µg/mL (≈ 0.468 µM)
S. aureus CRB; PBP4-overexpressor CRB versus CRB∆pbp4
  Fold difference in ceftobiprole resistance: 512 fold
S. aureus CRB
  MIC: 128 µg/mL (≈ 239 µM)
S. aureus CRB∆pbp4
  MIC: 0.25 µg/mL (≈ 0.468 µM)
S. aureus strain CRB
  MIC: 128 µg/mL
[2]
  MIC: 0.25 µg/mL
S. aureus strain USA300
  MIC: 1 µg/mL

## NC[C@H]1O[C@H](O[C@H]2[C@H](O)[C@@H](O[C@H]3O[C@H](CO)[C@@H](O)[C@H](N)[C@H]3O)[C@H](N)C[C@@H]2N)[C@H](N)C[C@@H]1O [TOB, tobramycin]
S. aureus USA300
  MIC: 1 µg/mL (≈ 2.14 µM)
S. aureus USA300∆pbp4
  MIC: 1 µg/mL (≈ 2.14 µM)
[1]
  MIC: 1 µg/mL (≈ 2.14 µM)
S. aureus COLnex
  MIC: 0.06 µg/mL (≈ 0.128 µM)
S. aureus CRB
  MIC: 0.06 µg/mL (≈ 0.128 µM)
S. aureus CRB∆pbp4
  MIC: 0.06 µg/mL (≈ 0.128 µM)
